Data on 16 compounds can be found in US5681691A, “Photographic element containing an improved pyrazolotriazole coupler” (Eastman Kodak Company, priority 1996, dated 1997).

Data set [1] in a line: Green pH sensitivity of gamma in multilayer film (format ML-A), normalized to C-1. The settings on record: for pH Sensitivity: multilayer film ML-A, developer pH 9.95 to 10.15, relative normalized pH sensitivity of green gamma vs C-1. The source says:
The formulas for the multilayer organic components are provided following the examples. The multilayer format used was an ISO 200 speed format (designated ML-A).
Table 4 indicates the experiment number, whether it is a comparative or inventive example, the magenta coupler used in the designated green sensitive layers and the laydown in each of those layers.
To measure the green pH sensitivity of a multilayer film, the following was done. A neutral stepped exposure was applied to nine 35-mm strips of the film. One strip was processed with the normal C-41 process. The other eight strips were processed in a 2**3 factorial design in which the pH of the developer solution was varied from 9.95 to 10.15, the bromide was varied from 0.8 g/L to 1.8 g/L, and the concentration of the developer was varied from 3.5 g/L to 5.5 g/L. The green Status M photographic D-logE gammas were measured for each film at mid-exposure, and each gamma was normalized by dividing by the average gamma for all nine strips.
The nine normalized gammas that were obtained at the nine combinations of pH, Br, and developer concentration were used as input to a least-squares regression in which normalized gamma was the response, and the factors were pH, Br, and developer concentration in a linear model with an intercept. The coefficient of pH is the sensitivity of normalized gamma to pH, and this was further normalized (divided) by the sensitivity of the comparison coupler C-1 (Table 2) that was processed at the same time as each test coupler.

Data set [2] can be described thus: pH sensitivity of gamma in single layer film, normalized to C-1. The settings on record: developer pH 9.75, 10, 10.37, normalized by division with pH sensitivity of C-1. An excerpt: To measure the pH sensitivity of a single layer film, the following was done. A stepped exposure was applied to three identical strips of the film. One strip was processed with the normal C-41 process at pH of about 10. A second strip was processed in the same developer in which the pH was decreased to 9.75, while the third strip was processed in the same developer in which the pH was increased to 10.37.
(§1) The emulsion was an undyed, but chemically sensitized, 0.7 micron polymorphic silver iodobromide emulsion containing 3.5% mole of iodide. The coating structure is shown below.
(§2) Monolayer coatings were panchromatically exposed and processed in developer solutions of different pH values. A stop bath was used to eliminate any complications due to the continuing coupling reaction. The processing procedure and solution formulations are listed below.
The D-logE Status M gamma was measured for each film and the three gammas were used as input to a least-squares regression in which gamma was the response, and the factors were pH and pH-squared in a linear model with an intercept. Before regression, the three pH values were shifted (centered) to have a mean of zero (-0.31, 0, 0.31). The coefficient of the main effect, pH, in the regression is the pH sensitivity of gamma, which was normalized by division with the pH sensitivity of the comparison coupler C-1 (Table 2) that was processed at the same time as each test coupler.

The nature of data set [3]: Activity of image coupler in single layer film (maximum slope relative to control coupler C-1). The settings on record: developer pH=10, ratio to maximum slope of C-1 control, higher ratio implies higher activity. As to the method: as §1, §2
Further single layer film elements were prepared as above, given a stepped exposure and processed (developer pH=10). The activity of an image coupler was determined by determining the maximum slope between any two adjacent steps for the coupler and dividing by the maximum slope of a corresponding control sample containing coupler C-1 processed at the same time as the sample. A higher ratio implies higher activity. The logP of the R3 fragment (a quantity also referred to as π) was calculated as described in the Detailed Description of the invention.

Turning to `CCCCCCCCCCCCC(c1n[nH]c2c(Cl)c(C)nn12)N(CCCCCCCC)C(=O)CCC(=O)O` (centres unmarked) [Mag C-1], the “pH Sensitivity” value in data set [1] and in data set [2] was 1.00 in each case. Further, in data set [3], the Activity is on record as 1.00.

With `CCCCCCCCCCC(Oc1ccc(S(=O)(=O)c2ccc(O)cc2)cc1)C(=O)Nc1ccc(CCCc2n[nH]c3c(Cl)c(C)nn23)cc1` (centres unmarked) [Mag C-2], in data set [2], the “pH Sensitivity” value is given as 1.39. Further, the Activity in data set [3] was determined as 0.51.

Consider `CCCCCCCCCCCCCCCC(=O)N(c1ccc(CC(=O)O)cc1)C(c1ccccc1)c1n[nH]c2c(Cl)c(C)nn12` (centres unmarked) [Mag C-4], for which the “pH Sensitivity” value in data set [2] was determined as 1.32. Moreover, the Activity in data set [3] is 0.87.

As to `CCCCCCCCCCCCCCCC(=O)N(Cc1ccc(C(=O)O)cc1)C(C)c1n[nH]c2c(Cl)c(C)nn12` (centres unmarked) [Mag C-5], the “pH Sensitivity” value in data set [2] came to 1.32. Moreover, the Activity in data set [3] was 1.34.

For `CCCCCCCCCCCCCCCCCC(=O)N(CCCCCC(=O)O)C(C)c1n[nH]c2c(Cl)c(C)nn12` (centres unmarked) [Mag C-7], the “pH Sensitivity” value in data set [2] is 1.32. The Activity in data set [3] turned out to be 1.04.

For the compound `CCCCCCCCCCCCCCCC(=O)N(c1cccc(CC(=O)O)c1)C(c1ccccc1)c1n[nH]c2c(Cl)c(C)nn12` (centres unmarked) [Mag C-8], the “pH Sensitivity” value in data set [2] is 1.43. In data set [3], the Activity stood at 1.26.

For `CCCCCCCCCCCCCCCC(=O)N(c1cccc(C(=O)O)c1)C(C)c1n[nH]c2c(Cl)c(C)nn12` (centres unmarked) [Mag C-10], the results for the “pH Sensitivity” value in data set [1] and in data set [2] were 0.66 and 0.51, respectively. Moreover, the Activity in data set [3] amounted to 1.52.

Consider `CCCCCCCCCCCCCCCCCC(=O)N(c1cccc(C(=O)O)c1)C(C)c1n[nH]c2c(Cl)c(C)nn12` (centres unmarked) [Mag C-11], for which the entries for the “pH Sensitivity” value in data set [1] and in data set [2] were 0.63 and 1.05, respectively. In addition, the Activity in data set [3] came to 1.33.

As for `CCCCCCCCCCCCCCCCCCCC(=O)N(CCCC(=O)O)C(c1ccccc1)c1n[nH]c2c(Cl)c(C)nn12` (centres unmarked) [Mag C-12], the “pH Sensitivity” value in data set [2] came out at 0.75. Further, the Activity in data set [3] was found to be 0.91.

Regarding `CCCCCCCCCCCCC(c1n[nH]c2c(Cl)c(C)nn12)N(C(=O)CCCCC)c1cccc(C(=O)O)c1` (centres unmarked) [Mag C-13], the Activity in data set [3] is given as 1.33.

Turning to `CCCCCCCCCCCCCCCCCCCCCC(=O)N(c1cccc(C(=O)OC)c1)C(C)c1n[nH]c2c(Cl)c(C)nn12` (centres unmarked) [Mag C-14], the Activity is 0.43 in data set [3] and “substantial loss of activity” in data set [3] (listed as SL-11).

For the compound `CCCCCC(=O)N(c1cccc(C(=O)O)c1)C(C)c1n[nH]c2c(Cl)c(C)nn12` (centres unmarked) [Mag C-15], in data set [1], the “pH Sensitivity” value stood at 0.41. For the same compound, in data set [1] (multilayer, solubility and washout of its magenta dye), the “magenta dye formed from coupler remaining in the film after processing” value is given as “very little”.

As for `CCCCCCCCCCCCCCCCCCCCCC(=O)N(c1cccc(C(=O)O)c1)C(C)c1n[nH]c2c(Cl)c(C)nn12` (centres unmarked) [Mag-1], the entries for the “pH Sensitivity” value in data set [1] and in data set [2] were 0.52 and 0.83, respectively. Also, the Activity in data set [3] is recorded as 1.50.

For `CCCCCCCCCCCCC(Oc1ccc(C(C)(C)CC(C)(C)C)cc1)C(=O)N(c1cccc(C(=O)O)c1)C(C)c1n[nH]c2c(Cl)c(C)nn12` (centres unmarked) [Mag-6], the “pH Sensitivity” value in data set [2] is given as 0.75. Also, in data set [3], the Activity is listed as 1.15.

On to `CCCCCCCCCCCCCCCc1cccc(OC(CCCC)C(=O)N(c2cccc(C(=O)O)c2)C(C)c2n[nH]c3c(Cl)c(C)nn23)c1` (centres unmarked) [Mag-7], for which the figures for the “pH Sensitivity” value in data set [1] and in data set [2] were 0.59 and 0.83, respectively. Besides, the Activity in data set [3] was found to be 1.22.

Consider `CCCCCCCCCCCCCCCCCCCCCC(=O)N(c1cccc(C(=O)O)c1)C(CC)c1n[nH]c2c(Cl)c(C)nn12` (centres unmarked) [Mag-11], for which the “pH Sensitivity” value in data set [1] was found to be 0.56.
